Converted amounts (≈) assume the structure as drawn. Read-outs that look alike come from different tables or passages of the source.
Experiments:
[1] = tested on: Bacillus subtilis IFO 3134; assay: Antibacterial activity (MIC), standard method of Japan Society of Chemotherapy; format: cell-based
Excerpt: (§1) The results obtained from the typical compounds are shown in Table 2 as the minimum inhibitory concentration (MIC, μg/ml). […] In Table 2, Test compound No. corresponds to derivative No. in Table 1.

[2] = tested on: Escherichia coli IFO 12734; assay: as above; format: cell-based; details: IFO12734, read-out: minimum inhibitory concentration (MIC)
Excerpt: as §1

[3] = tested on: Klebsiella pneumoniae IFO 3512; assay: as above; format: cell-based
Excerpt: as §1

[4] = tested on: Micrococcus luteus IFO 12708; assay: as above; format: cell-based
Excerpt: as §1

[5] = tested on: Mycobacterium smegmatis ATCC 607; assay: as above; format: cell-based; details: Mycolicibacterium smegmatis
Excerpt: as §1

[6] = tested on: Staphylococcus aureus IFO 12732; assay: as above; format: cell-based
Excerpt: as §1

[7] = Concentration in serum after oral administration to rats; details: rat, 20 mg/kg
[8] = IFO3134, Bacillus subtilis IFO 3134, read-out: minimum inhibitory concentration (MIC)
[9] = IFO3512, Klebsiella pneumoniae IFO 3512, read-out: minimum inhibitory concentration (MIC)
[10] = IFO12708, Micrococcus luteus IFO 12708, read-out: minimum inhibitory concentration (MIC)
[11] = ATCC607, Mycobacterium smegmatis ATCC 607, read-out: minimum inhibitory concentration (MIC)
[12] = IFO12732, Staphylococcus aureus IFO 12732, read-out: minimum inhibitory concentration (MIC)

SMILES	MIC [2] [µg/mL]	MIC [1, 8] [µg/mL]	MIC [3, 9] [µg/mL]	MIC [4, 10] [µg/mL]	MIC [5, 11] [µg/mL]	MIC [6, 12] [µg/mL]	concentration at 1 h [7] [ng/mL]	concentration at 3 h [7] [ng/mL]	concentration at 5 h [7] [ng/mL]	MIC ([1]; Bacillus subtilis, IFO3134, read-out: minimum inhibitory concentration (MIC)) [µg/mL]	MIC ([3]; Klebsiella pneumoniae, IFO3512, read-out: minimum inhibitory concentration (MIC)) [µg/mL]	MIC ([4]; Micrococcus luteus, IFO12708, read-out: minimum inhibitory concentration (MIC)) [µg/mL]	MIC ([5]; ATCC607, read-out: minimum inhibitory concentration (MIC)) [µg/mL]	MIC ([6]; Staphylococcus aureus, IFO12732, read-out: minimum inhibitory concentration (MIC)) [µg/mL]
CO[C@H]1/C=C/O[C@@]2(C)Oc3c(C)c(O)c4c(O)c(c(/C=N/N5CCN(C)CC5)c(O)c4c3C2=O)NC(=O)/C(C)=C\C=C\[C@H](C)[C@H](O)[C@@H](C)[C@@H](O)[C@@H](C)[C@H](OC(C)=O)[C@@H]1C [Rifampicin, reference compound]	10 (≈ 12.2 µM)	–	–	–	–	–	–	–	–	0.04 (≈ 0.0486 µM)	5 (≈ 6.08 µM)	≤ 0.02	10 (≈ 12.2 µM)	≤ 0.02
CCN(C)c1ccc2nc3c4c5c6c(C)c(O)c4c(=O)c(c-3oc2c1)NC(=O)C(C)=CC=CC(C)C(O)C(C)C(O)C(C)C(OC(C)=O)C(C)C(OC)C=COC(C)(O6)C5=O (stereo not drawn) [compound 2]	1.25 (≈ 1.48 µM)	0.04 (≈ 0.0475 µM)	2.5 (≈ 2.97 µM)	≤ 0.02	1.25 (≈ 1.48 µM)	≤ 0.02	3000	5400	3000	–	–	–	–	–
CCN(CC)c1ccc2nc3c4c5c6c(C)c(O)c4c(=O)c(c-3oc2c1)NC(=O)C(C)=CC=CC(C)C(O)C(C)C(O)C(C)C(OC(C)=O)C(C)C(OC)C=COC(C)(O6)C5=O (stereo not drawn) [compound 3]	2.5 (≈ 2.92 µM)	≤ 0.02	5 (≈ 5.84 µM)	≤ 0.02	1.25 (≈ 1.46 µM)	≤ 0.02	1800	3300	1300	–	–	–	–	–
CCCN(CCC)c1ccc2nc3c4c5c6c(C)c(O)c4c(=O)c(c-3oc2c1)NC(=O)C(C)=CC=CC(C)C(O)C(C)C(O)C(C)C(OC(C)=O)C(C)C(OC)C=COC(C)(O6)C5=O (stereo not drawn) [compound 4]	> 10	0.08 (≈ 0.0905 µM)	> 10	≤ 0.02	1.25 (≈ 1.41 µM)	≤ 0.02	2000	8500	2100	–	–	–	–	–
CCOCCN(CCOCC)c1ccc2nc3c4c5c6c(C)c(O)c4c(=O)c(c-3oc2c1)NC(=O)C(C)=CC=CC(C)C(O)C(C)C(O)C(C)C(OC(C)=O)C(C)C(OC)C=COC(C)(O6)C5=O (stereo not drawn) [compound 9]	5 (≈ 5.3 µM)	≤ 0.02	10 (≈ 10.6 µM)	≤ 0.02	1.25 (≈ 1.32 µM)	≤ 0.02	2100	5400	1800	–	–	–	–	–
COC(CN(C)c1ccc2nc3c4c5c6c(C)c(O)c4c(=O)c(c-3oc2c1)NC(=O)C(C)=CC=CC(C)C(O)C(C)C(O)C(C)C(OC(C)=O)C(C)C(OC)C=COC(C)(O6)C5=O)OC (stereo not drawn) [compound 11]	> 10	≤ 0.02	5 (≈ 5.54 µM)	≤ 0.02	2.5 (≈ 2.77 µM)	≤ 0.02	2900	3400	1000	–	–	–	–	–
COC1C=COC2(C)Oc3c(C)c(O)c4c(=O)c(c5oc6cc(N(C)C7CCCCC7)ccc6nc-5c4c3C2=O)NC(=O)C(C)=CC=CC(C)C(O)C(C)C(O)C(C)C(OC(C)=O)C1C (stereo not drawn) [compound 12]	> 10	≤ 0.02	> 10	≤ 0.02	1.25 (≈ 1.4 µM)	≤ 0.02	–	–	–	–	–	–	–	–
CCN(CC)C(=O)C1CCCN(c2ccc3nc4c5c6c7c(C)c(O)c5c(=O)c(c-4oc3c2)NC(=O)C(C)=CC=CC(C)C(O)C(C)C(O)C(C)C(OC(C)=O)C(C)C(OC)C=COC(C)(O7)C6=O)C1 (stereo not drawn) [compound 31]	5 (≈ 5.17 µM)	≤ 0.02	> 10	≤ 0.02	1.25 (≈ 1.29 µM)	≤ 0.02	–	–	–	–	–	–	–	–
COC1C=COC2(C)Oc3c(C)c(O)c4c(=O)c(c5oc6cc(N7CC=CCC7)ccc6nc-5c4c3C2=O)NC(=O)C(C)=CC=CC(C)C(O)C(C)C(O)C(C)C(OC(C)=O)C1C (stereo not drawn) [compound 37]	2.5 (≈ 2.89 µM)	≤ 0.02	> 10	≤ 0.02	1.25 (≈ 1.44 µM)	0.08 (≈ 0.0924 µM)	–	–	–	–	–	–	–	–
COC1C=COC2(C)Oc3c(C)c(O)c4c(=O)c(c5oc6cc(N7CCN(C)CC7)ccc6nc-5c4c3C2=O)NC(=O)C(C)=CC=CC(C)C(O)C(C)C(O)C(C)C(OC(C)=O)C1C (stereo not drawn) [compound 39]	0.63 (≈ 0.713 µM)	0.04 (≈ 0.0453 µM)	1.25 (≈ 1.42 µM)	≤ 0.02	1.25 (≈ 1.42 µM)	0.04 (≈ 0.0453 µM)	–	–	–	–	–	–	–	–
COC1C=COC2(C)Oc3c(C)c(O)c4c(=O)c(c5oc6cc(N7CCSCC7)ccc6nc-5c4c3C2=O)NC(=O)C(C)=CC=CC(C)C(O)C(C)C(O)C(C)C(OC(C)=O)C1C (stereo not drawn) [compound 45]	2.5 (≈ 2.82 µM)	0.04 (≈ 0.0451 µM)	10 (≈ 11.3 µM)	≤ 0.02	1.25 (≈ 1.41 µM)	≤ 0.02	–	–	–	–	–	–	–	–
COC1C=COC2(C)Oc3c(C)c(O)c4c(=O)c(c5oc6cc(N7CCCC7)cc(O)c6nc-5c4c3C2=O)NC(=O)C(C)=CC=CC(C)C(O)C(C)C(O)C(C)C(OC(C)=O)C1C (stereo not drawn) [compound 46]	> 10	≤ 0.02	> 10	≤ 0.02	1.25 (≈ 1.44 µM)	≤ 0.02	–	–	–	–	–	–	–	–
COC1C=COC2(C)Oc3c(C)c(O)c4c(=O)c(c5oc6cc(N7CCCC7)ccc6nc-5c4c3C2=O)NC(=O)C(C)=CC=CC(C)C(O)C(C)C(O)C(C)C(O)C1C (stereo not drawn) [compound 49]	1.25 (≈ 1.54 µM)	≤ 0.02	5 (≈ 6.16 µM)	≤ 0.02	1.25 (≈ 1.54 µM)	≤ 0.02	2700	3500	2800	–	–	–	–	–
COC1C=COC2(C)Oc3c(C)c(O)c4c(=O)c(c5oc6cc(N7CCCCC7)ccc6nc-5c4c3C2=O)NC(=O)C(C)=CC=CC(C)C(O)C(C)C(O)C(C)C(O)C1C (stereo not drawn) [compound 50]	–	–	–	–	–	–	700	2400	2800	–	–	–	–	–

Now from value to compound, other results behind:

MIC [2] [µg/mL]	MIC [1, 8] [µg/mL]	MIC [3, 9] [µg/mL]	MIC [4, 10] [µg/mL]	MIC [5, 11] [µg/mL]	MIC [6, 12] [µg/mL]	concentration at 1 h [7] [ng/mL]	concentration at 3 h [7] [ng/mL]	concentration at 5 h [7] [ng/mL]	SMILES	MIC ([1]; Bacillus subtilis, IFO3134, read-out: minimum inhibitory concentration (MIC)) [µg/mL]	MIC ([3]; Klebsiella pneumoniae, IFO3512, read-out: minimum inhibitory concentration (MIC)) [µg/mL]	MIC ([4]; Micrococcus luteus, IFO12708, read-out: minimum inhibitory concentration (MIC)) [µg/mL]	MIC ([5]; ATCC607, read-out: minimum inhibitory concentration (MIC)) [µg/mL]	MIC ([6]; Staphylococcus aureus, IFO12732, read-out: minimum inhibitory concentration (MIC)) [µg/mL]
2.5 (≈ 2.98 µM)	≤ 0.02	2.5 (≈ 2.98 µM)	≤ 0.02	0.63 (≈ 0.75 µM)	≤ 0.02	4100	3700	2500	COC1C=COC2(C)Oc3c(C)c(O)c4c(=O)c(c5oc6cc(N7CCC7)ccc6nc-5c4c3C2=O)NC(=O)C(C)=CC=CC(C)C(O)C(C)C(O)C(C)C(OC(C)=O)C1C (stereo not drawn) [compound 17]	–	–	–	–	–
2.5 (≈ 2.93 µM)	≤ 0.02	5 (≈ 5.86 µM)	≤ 0.02	1.25 (≈ 1.46 µM)	≤ 0.02	2300	4900	3400	COC1C=COC2(C)Oc3c(C)c(O)c4c(=O)c(c5oc6cc(N7CCCC7)ccc6nc-5c4c3C2=O)NC(=O)C(C)=CC=CC(C)C(O)C(C)C(O)C(C)C(OC(C)=O)C1C (stereo not drawn) [compound 18]	–	–	–	–	–
2.5 (≈ 2.88 µM)	≤ 0.02	10 (≈ 11.5 µM)	≤ 0.02	1.25 (≈ 1.44 µM)	≤ 0.02	4900	12400	16600	COC1C=COC2(C)Oc3c(C)c(O)c4c(=O)c(c5oc6cc(N7CCCCC7)ccc6nc-5c4c3C2=O)NC(=O)C(C)=CC=CC(C)C(O)C(C)C(O)C(C)C(OC(C)=O)C1C (stereo not drawn) [compound 19]	–	–	–	–	–
1.25 (≈ 1.42 µM)	0.04 (≈ 0.0454 µM)	> 10	≤ 0.02	1.25 (≈ 1.42 µM)	0.08 (≈ 0.0907 µM)	3200	5700	4900	COC1C=COC2(C)Oc3c(C)c(O)c4c(=O)c(c5oc6cc(N7CCCCCC7)ccc6nc-5c4c3C2=O)NC(=O)C(C)=CC=CC(C)C(O)C(C)C(O)C(C)C(OC(C)=O)C1C (stereo not drawn) [compound 20]	–	–	–	–	–
> 10	≤ 0.02	> 10	≤ 0.02	1.25 (≈ 1.42 µM)	≤ 0.02	2100	6100	5200	COC1C=COC2(C)Oc3c(C)c(O)c4c(=O)c(c5oc6cc(N7CCCC(C)C7)ccc6nc-5c4c3C2=O)NC(=O)C(C)=CC=CC(C)C(O)C(C)C(O)C(C)C(OC(C)=O)C1C (stereo not drawn) [compound 23]	–	–	–	–	–
> 10	≤ 0.02	> 10	≤ 0.02	1.25 (≈ 1.42 µM)	≤ 0.02	–	–	–	COC1C=COC2(C)Oc3c(C)c(O)c4c(=O)c(c5oc6cc(N7CCC(C)CC7)ccc6nc-5c4c3C2=O)NC(=O)C(C)=CC=CC(C)C(O)C(C)C(O)C(C)C(OC(C)=O)C1C (stereo not drawn) [compound 24]	–	–	–	–	–
–	–	–	–	–	–	2400	6600	3500	CCC1CCCCN1c1ccc2nc3c4c5c6c(C)c(O)c4c(=O)c(c-3oc2c1)NC(=O)C(C)=CC=CC(C)C(O)C(C)C(O)C(C)C(OC(C)=O)C(C)C(OC)C=COC(C)(O6)C5=O (stereo not drawn) [compound 25]	–	–	–	–	–
> 10	≤ 0.02	> 10	≤ 0.02	1.25 (≈ 1.4 µM)	≤ 0.02	1800	6400	1700	COC1C=COC2(C)Oc3c(C)c(O)c4c(=O)c(c5oc6cc(N7CCCC(C)(C)C7)ccc6nc-5c4c3C2=O)NC(=O)C(C)=CC=CC(C)C(O)C(C)C(O)C(C)C(OC(C)=O)C1C (stereo not drawn) [compound 27]	–	–	–	–	–

— US4690919A, “Benzoxazinorifamycin derivative, process for preparing the same and antibacterial agent containing the same” (Kanegafuchi Kagaku Kogyo Kabushiki Kaisha, priority 1985, dated 1987)
